Measurements: patent US20260355184A1, “SMALL MOLECULE DEGRADERS OF HIV-1 TAT PROTEIN” (priority 2022, published 2026)
“Also recorded” adds a separate entry of the source.

Legend:
HIV Tat = experiment: Tat-TAR assay (HIV LTR luciferase transactivation, PL11 cells); format: cell-based; conditions: for activity against Tat 86 a.a. from different HIV clades: HIV clade B, C and E, n=1; for IC50 against Tat 86 and 101 residues (comparison): Tat 86 a.a. vs 101 a.a.
Source text: Tat is a 14 kDa protein that is synthesized from an mRNA joined from 2 coding exons (FIG. 1B). The first exon encodes amino acids 1-72 and (in most strains of HIV), the second exon encodes amino acids 73-101. An N-terminal 86-amino acid form of Tat produced in a few laboratory-passaged virus strains is frequently used to study Tat. The classic cell-based Tat transactivation assay of the HIV LTR driving luciferase was optimized as a reporter gene for HTS9 (FIG. 2A). […] LTR activation is triggered by transfection of a plasmid expressing HIV-1HXB3 Tat (101 a.a.) driven by the phosphoglycerate (PGK) promoter.

PL11 cells = experiment: Tat independent transactivation counter-screen with TNFα, PL11 cells; format: cell-based; conditions: PL11 cells activated with TNFα
Source text: Tat is a 14 kDa protein that is synthesized from an mRNA joined from 2 coding exons (FIG. 1B). The first exon encodes amino acids 1-72 and (in most strains of HIV), the second exon encodes amino acids 73-101. An N-terminal 86-amino acid form of Tat produced in a few laboratory-passaged virus strains is frequently used to study Tat. The classic cell-based Tat transactivation assay of the HIV LTR driving luciferase was optimized as a reporter gene for HTS9 (FIG. 2A). The assay concept is exceptionally robust, includes all the cellular components needed for transcriptional activation, and is very well-suited for an HTS for Tat antagonists. Compared with alternative approaches, this classic assay consistently outperformed the others. […] LTR activation is triggered by transfection of a plasmid expressing HIV-1HXB3 Tat (101 a.a.) driven by the phosphoglycerate (PGK) promoter. The assay called “Tat-TAR assay” was validated, and found robust and very well suited for an HTS platform, with a signal to background ratio of 407:1, a signal to noise ratio of 10:1, and a Z′=0.67. The cytotoxicity screen was performed in parallel (Cell-Titer-Glo, Promega), showing a signal to background ratio 898:1, signal to noise ratio 21:1 and a Z′=0.86. […] These hits were counter-screened in a Tat independent transactivation assay using TNFα to activate PL11 cells, resulting in the selection of 30 hits.

Tat or GFP mRNA = Tat or GFP mRNA expression in HEK293T cells; format: cell-based; conditions: n=3
Flag-Tat = target: T1, Flag-Tat (Human immunodeficiency virus type 1 (HXB3 ISOLATE), UniProt P69698); experiment: Degradation assay: Flag-Tat in HEK293T cells, western blot; format: cell-based, HIV; conditions: for effect of chloroquine or NH4Cl on compound induced Flag-Tat degradation: Chloroquine 100 μM or NH4Cl 50 mM, 8 hrs; for Flag-Tat degradation / steady state: western blot; for effect of Lenalidomide on compound induced Flag-Tat degradation: Lenalidomide 40 μM, 4 hrs; for effect of MG132 on compound induced Flag-Tat degradation: MG132 20 μM, 17 hrs
T1 construct: Tat 86 aa likely (9 lysines)
T1 sequence (P69698 whole entry): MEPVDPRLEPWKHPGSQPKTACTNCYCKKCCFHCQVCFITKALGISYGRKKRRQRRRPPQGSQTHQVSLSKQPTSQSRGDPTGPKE
Method: Next, the effect of the three leads on the alteration of Tat steady state levels was assessed. Tat expression from an integrated provirus, or from HIV acute infection is generally too low to be detected by western blot. Furthermore, antibodies against Tat are known for their lack of avidity. Tat degradation was thus assessed upon transfection. Flag-Tat or Flag-GFP were individually transfected into HEK293T and 24 hrs later, TT-44856, TT-44863 or TT-44881 were added to the culture, followed by Western blot 24 hrs later (dubbed “degradation assay”) (FIG. 5A). […] These cells were treated with TNFα (previously determined not be degraded by the three leads in FIG. 2D) in the presence of TT-44856, TT-44863 or TT-44881, followed by western blot with an anti-Flag antibody 17 hrs later. […] Finally, the leads' impact on recombinant Tat protein in HEK293T cells was assessed (FIG. 5D). HEK293T cells were incubated with recombinant Tat for 4 hrs to allow Tat internalization, followed by several thorough washes to remove unincorporated Tat. Cells were then incubated with all three leads (or Triptolide) for an additional 2 hrs. Cells were lysed and analyzed by western blot with an anti-Tat serum.
Degradation of Tat has been reported in the literature in multiple ways, including the lysosomal pathway^23, the ubiquitin-independent 20S proteasomal pathway (due to its unfolded structure)^24,25, and the ubiquitin-dependent 26S proteasomal pathway^26. It was first assessed whether Tat was targeted to the lysosomal pathway by the lead compounds. HEK293T cells were transfected with Flag-Tat for 24 hrs, incubated with the compounds for an additional 24 hrs, then treated for 8 hrs with either 100 μM chloroquine or 50 mM NH4Cl, both known to inhibit lysosomal hydrolases by reducing acidification. […] Both the 20S and the 26S proteasomal pathways were next investigated using MG132, an inhibitor of the catalytic […] of 20S present in both pathways^27. The degradation assay was carried out as above, but compounds were simultaneously incubated with MG132 20 μM or DMSO for 17 hrs followed by western blot. In the presence of MG132, Tat degradation was rescued, but the rescue was higher in the presence of the lead compounds (FIG. 6B).
Protein ubiquitination occurs by sequential recruitment of ubiquitin-activating enzyme E1, ubiquitin-conjugating enzyme E2, and ubiquitin ligase E3 (using ubiquitin, substrate protein, and ATP). The selectivity in protein ubiquitination is conferred by E3 ubiquitin ligases that recognize the substrate proteins^29 and the human genome contains more than 600 E3 ubiquitin ligases^29. To determine whether the small molecule leads trigger the 20S or the 26S proteasomal pathways, the Tat degradation assay was performed in the presence of commercially available E3 ligase inhibitors, including Lenalidomide a E3 ubiquitin ligase Cereblon inhibitor. Cereblon has not been previously reported to ubiquitinate Tat. The degradation assays were performed as above with Lenalidomide (40 μM) or DMSO incubation for 4 hrs in the presence of the lead molecules (FIG. 7A). […] To confirm the engagement of Cereblon in the mechanism of action of the lead compounds, shRNAs were used to stably knock down Cerebelon, or CD8 control, in HEK293T cells, and the degradation assay for TT-44856 was performed.
The involvement of the ubiquitous VHL E3 ligase in the activity of TT-44881 inducing Tat degradation was also investigated. HEK293T cells overexpressing Tat protein and VHL siRNAs (or si control) were treated with either TT-44881 (60 μM) and DMSO or TT-44881 with a VHL PROTAC (CM11, 500 nM) for 24 hours. siRNAs and PROTACs were used together to maximize the depletion of both VHL isoforms (30 and 19 kDa).

| Compound | activity against Tat 86 a.a. from different HIV clades (HIV Tat) | IC50 against Tat 86 and 101 residues (comparison) (HIV Tat) | Tat specificity in TNFα counter-screen (PL11 cells) | effect on Tat or GFP mRNA expression (Tat or GFP mRNA) | effect of chloroquine or NH4Cl on compound induced Flag-Tat degradation (Flag-Tat; n=1) | Flag-Tat degradation / steady state (Flag-Tat; HEK293T) | effect of Lenalidomide on compound induced Flag-Tat degradation (Flag-Tat) | effect of MG132 on compound induced Flag-Tat degradation (Flag-Tat) | Flag-Tat degradation upon Cereblon knockdown (Flag-Tat; shRNA Cereblon, HEK293T, TT-44856 40 μM, n=1) | Tat degradation upon VHL depletion (Flag-Tat; VHL siRNA and VHL PROTAC CM11 500 nM, 24 hours, TT-44881 60 μM) |
| --- | --- | --- | --- | --- | --- | --- | --- | --- | --- | --- |
| COCCOc1ccc(C(F)(F)F)cc1NC(=O)Cn1cc(C(F)(F)F)cc(Cl)c1=O [TT-44863] | activity was confirmed | Equivalent IC50 | Tat specific | without affecting Flag-Tat mRNA levels | do not prevent lead hits induced Flag-Tat degradation | Tat protein degradation was observed | prevents Tat compounds induced Flag-Tat degradation | prevents lead hits induced Flag-Tat degradation |  |  |
| CC(C(=O)NCCCn1ccnc1)(c1ccccc1)c1ccccc1 [TT-44856] | activity was confirmed | Equivalent IC50 | Tat specific | without affecting Flag-Tat mRNA levels | do not prevent lead hits induced Flag-Tat degradation | Tat protein degradation was observed | prevents Tat compounds induced Flag-Tat degradation | prevents lead hits induced Flag-Tat degradation | no longer engaging Flag-Tat for degradation; also recorded: diminishes TT-44856 induced Flag-Tat degradation |  |
| O=C(CCCCN1CCCC1=O)c1nn(-c2ccccc2)c2c1CCC2 [TT-44881] | activity was confirmed | Equivalent IC50 | Tat specific | without affecting Flag-Tat mRNA levels | do not prevent lead hits induced Flag-Tat degradation | Tat protein degradation was observed | prevents Tat compounds induced Flag-Tat degradation | prevents lead hits induced Flag-Tat degradation |  | no longer depleted |
